Assay results reported in PubChem BioAssay (NCI).
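96-well plates; 48 h exposure; 5 concentrations. Endpoints by linear interpolation between flanking doses. Not reached: highest tested concentration assigned. TGI denotes the concentration required for complete inhibition of growth.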

Key:
Assay in all cases: NCI-60 cell line screen, 48 h
BT-549 breast = test system: BT-549 breast
HT29 colon = test system: HT29 colon
A498 renal = test system: A498 renal
HCT-15 colon = test system: HCT-15 colon
NCI-H23 lung = test system: NCI-H23 lung
KM12 colon = test system: KM12 colon
OVCAR-4 ovarian = test system: OVCAR-4 ovarian
OVCAR-8 ovarian = test system: OVCAR-8 ovarian
MCF7 breast = test system: MCF7 breast
SF-539 CNS = test system: SF-539 CNS
CCRF-CEM leukemia = test system: CCRF-CEM leukemia
HOP-62 NSCLC = test system: HOP-62 NSCLC
HL-60(TB) leukemia = test system: HL-60(TB) leukemia
U251 CNS = test system: U251 CNS
SNB-75 CNS = test system: SNB-75 CNS
TK-10 renal = test system: TK-10 renal
OVCAR-3 ovarian = test system: OVCAR-3 ovarian
UACC-62 melanoma = test system: UACC-62 melanoma
SN12C renal = test system: SN12C renal
PC-3 prostate = test system: PC-3 prostate
SF-295 CNS = test system: SF-295 CNS
HOP-92 NSCLC = test system: HOP-92 NSCLC
IGROV1 ovarian = test system: IGROV1 ovarian
HCT-116 colon = test system: HCT-116 colon
MDA-MB-435 = test system: MDA-MB-435
SK-MEL-28 melanoma = test system: SK-MEL-28 melanoma
786-0 renal = test system: 786-0 renal
SNB-19 CNS = test system: SNB-19 CNS
SF-268 CNS = test system: SF-268 CNS
SK-OV-3 ovarian = test system: SK-OV-3 ovarian
MOLT-4 leukemia = test system: MOLT-4 leukemia
COLO 205 colon = test system: COLO 205 colon
K-562 leukemia = test system: K-562 leukemia
DU-145 prostate = test system: DU-145 prostate
MDA-MB-231 breast = test system: MDA-MB-231 breast
SR leukemia = test system: SR leukemia
MDA-N = test system: MDA-N
UO-31 renal = test system: UO-31 renal
LOX IMVI melanoma = test system: LOX IMVI melanoma
HS 578T breast = test system: HS 578T breast
NCI-H460 lung = test system: NCI-H460 lung
OVCAR-5 ovarian = test system: OVCAR-5 ovarian
MALME-3M melanoma = test system: MALME-3M melanoma
M14 melanoma = test system: M14 melanoma
A549 NSCLC = test system: A549 NSCLC
SK-MEL-5 melanoma = test system: SK-MEL-5 melanoma
NCI-H522 lung = test system: NCI-H522 lung
NCI-H226 lung = test system: NCI-H226 lung
SW-620 colon = test system: SW-620 colon
RXF 393 renal = test system: RXF 393 renal
T-47D breast = test system: T-47D breast
ACHN renal = test system: ACHN renal
SK-MEL-2 melanoma = test system: SK-MEL-2 melanoma
CAKI-1 renal = test system: CAKI-1 renal
UACC-257 melanoma = test system: UACC-257 melanoma
EKVX NSCLC = test system: EKVX NSCLC
RPMI-8226 leukemia = test system: RPMI-8226 leukemia
NCI/ADR-RES ovarian = test system: NCI/ADR-RES ovarian
HCC-2998 colon = test system: HCC-2998 colon

For `O=C1Cc2c([nH]c3cc(Br)ccc23)-c2ccccc2N1`, the TGI (BT-549 breast) was 46.9 µM, the TGI (HT29 colon) was 37.2 µM and the TGI (A498 renal) was 49 µM. For the same compound, the TGI (HCT-15 colon) was 25.2 µM, the TGI (NCI-H23 lung) was > 100 µM and the TGI (KM12 colon) was > 100 µM. The TGI (OVCAR-4 ovarian) was 38.2 µM, the TGI (OVCAR-8 ovarian) was 73.9 µM and the TGI (MCF7 breast) was > 100 µM. For the same compound, the TGI (SF-539 CNS) was 37.3 µM, the TGI (CCRF-CEM leukemia) was 20.2 µM and the TGI (HOP-62 NSCLC) was 26 µM. The TGI (HL-60(TB) leukemia) was > 100 µM, the TGI (U251 CNS) was 31.8 µM and the TGI (SNB-75 CNS) was 44.9 µM. The TGI (TK-10 renal) was 87.3 µM, the TGI (OVCAR-3 ovarian) was 83.4 µM and the TGI (UACC-62 melanoma) was 49.2 µM. For the same compound, the TGI (SN12C renal) was 76.4 µM, the TGI (PC-3 prostate) was 44.3 µM and the TGI (SF-295 CNS) was 61.3 µM. For the same compound, the TGI (HOP-92 NSCLC) was 88.3 µM, the TGI (IGROV1 ovarian) was 99.7 µM and the TGI (HCT-116 colon) was 15.9 µM. The TGI (MDA-MB-435) was > 100 µM, the TGI (SK-MEL-28 melanoma) was > 100 µM and the TGI (786-0 renal) was > 100 µM. The TGI (SNB-19 CNS) was 58 µM, the TGI (SF-268 CNS) was 89.9 µM and the TGI (SK-OV-3 ovarian) was 58.8 µM. The TGI (MOLT-4 leukemia) was 40.9 µM, the TGI (COLO 205 colon) was 93.8 µM and the TGI (K-562 leukemia) was > 100 µM. For the same compound, the TGI (DU-145 prostate) was 79.7 µM, the TGI (MDA-MB-231 breast) was > 100 µM and the TGI (SR leukemia) was > 100 µM. For the same compound, the TGI (MDA-N) was > 100 µM, the TGI (UO-31 renal) was 38.1 µM and the TGI (LOX IMVI melanoma) was 37 µM. For the same compound, the TGI (HS 578T breast) was 69.9 µM, the TGI (NCI-H460 lung) was 48.5 µM and the TGI (OVCAR-5 ovarian) was 52.7 µM. The TGI (MALME-3M melanoma) was 48.1 µM, the TGI (M14 melanoma) was 37.5 µM and the TGI (A549 NSCLC) was 64.1 µM. The TGI (SK-MEL-5 melanoma) was 38.9 µM, the TGI (NCI-H522 lung) was 52.7 µM and the TGI (NCI-H226 lung) was 34.7 µM. The TGI (SW-620 colon) was 52.5 µM, the TGI (RXF 393 renal) was 12.2 µM and the TGI (T-47D breast) was 84.1 µM. It also gave a TGI (ACHN renal) of 64.7 µM.
In the case of `CC(C)C(=O)CP(=O)(O)O`, the TGI (BT-549 breast) is reported as > 100 µM, the TGI (SK-MEL-2 melanoma) is reported as > 100 µM and the TGI (HT29 colon) is reported as > 100 µM. The TGI (A498 renal) was > 100 µM, the TGI (CAKI-1 renal) was > 100 µM and the TGI (HCT-15 colon) was > 100 µM. The TGI (NCI-H23 lung) was > 100 µM, the TGI (KM12 colon) was > 100 µM and the TGI (OVCAR-4 ovarian) was > 100 µM. For the same compound, the TGI (OVCAR-8 ovarian) was > 100 µM, the TGI (MCF7 breast) was > 100 µM and the TGI (SF-539 CNS) was > 100 µM. For the same compound, the TGI (CCRF-CEM leukemia) was > 100 µM, the TGI (HOP-62 NSCLC) was > 100 µM and the TGI (HL-60(TB) leukemia) was > 100 µM. For the same compound, the TGI (U251 CNS) was > 100 µM, the TGI (SNB-75 CNS) was > 100 µM and the TGI (TK-10 renal) was > 100 µM. The TGI (OVCAR-3 ovarian) was > 100 µM, the TGI (UACC-62 melanoma) was > 100 µM and the TGI (SN12C renal) was > 100 µM. For the same compound, the TGI (PC-3 prostate) was > 100 µM, the TGI (SF-295 CNS) was > 100 µM and the TGI (HOP-92 NSCLC) was > 100 µM. The TGI (IGROV1 ovarian) was > 100 µM, the TGI (HCT-116 colon) was > 100 µM and the TGI (MDA-MB-435) was > 100 µM. For the same compound, the TGI (SK-MEL-28 melanoma) was > 100 µM, the TGI (UACC-257 melanoma) was > 100 µM and the TGI (786-0 renal) was > 100 µM. The TGI (SNB-19 CNS) was > 100 µM, the TGI (SF-268 CNS) was > 100 µM and the TGI (SK-OV-3 ovarian) was > 100 µM. For the same compound, the TGI (MOLT-4 leukemia) was > 100 µM, the TGI (EKVX NSCLC) was 46.1 µM and the TGI (RPMI-8226 leukemia) was > 100 µM. The TGI (COLO 205 colon) was > 100 µM, the TGI (K-562 leukemia) was > 100 µM and the TGI (DU-145 prostate) was > 100 µM. For the same compound, the TGI (NCI/ADR-RES ovarian) was > 100 µM, the TGI (MDA-MB-231 breast) was > 100 µM and the TGI (SR leukemia) was > 100 µM. The TGI (MDA-N) was > 100 µM, the TGI (LOX IMVI melanoma) was > 100 µM and the TGI (HS 578T breast) was > 100 µM. For the same compound, the TGI (NCI-H460 lung) was > 100 µM, the TGI (OVCAR-5 ovarian) was > 100 µM and the TGI (MALME-3M melanoma) was > 100 µM. For the same compound, the TGI (M14 melanoma) was > 100 µM, the TGI (A549 NSCLC) was > 100 µM and the TGI (SK-MEL-5 melanoma) was > 100 µM. For the same compound, the TGI (NCI-H522 lung) was > 100 µM, the TGI (NCI-H226 lung) was > 100 µM and the TGI (SW-620 colon) was > 100 µM. For the same compound, the TGI (RXF 393 renal) was > 100 µM, the TGI (T-47D breast) was > 100 µM and the TGI (ACHN renal) was > 100 µM.
`CC1(C)N=C(N)N=C(N)N1CCCCc1ccccc1` was tested, and the TGI (BT-549 breast) was > 100 µM, the TGI (SK-MEL-2 melanoma) was > 100 µM and the TGI (HT29 colon) was > 100 µM. For the same compound, the TGI (A498 renal) was > 100 µM, the TGI (CAKI-1 renal) was > 100 µM and the TGI (HCT-15 colon) was > 100 µM. The TGI (NCI-H23 lung) was > 100 µM, the TGI (KM12 colon) was > 100 µM and the TGI (OVCAR-4 ovarian) was > 100 µM. The TGI (OVCAR-8 ovarian) was > 100 µM, the TGI (MCF7 breast) was > 100 µM and the TGI (SF-539 CNS) was 32.4 µM. For the same compound, the TGI (CCRF-CEM leukemia) was > 100 µM, the TGI (HOP-62 NSCLC) was > 100 µM and the TGI (HCC-2998 colon) was > 51 µM. For the same compound, the TGI (HL-60(TB) leukemia) was > 31.1 µM, the TGI (U251 CNS) was > 100 µM and the TGI (SNB-75 CNS) was 97.6 µM. The TGI (TK-10 renal) was > 100 µM, the TGI (OVCAR-3 ovarian) was > 36.8 µM and the TGI (UACC-62 melanoma) was > 100 µM. The TGI (SN12C renal) was > 54.4 µM, the TGI (PC-3 prostate) was > 77 µM and the TGI (SF-295 CNS) was > 62.6 µM. The TGI (HOP-92 NSCLC) was > 100 µM, the TGI (IGROV1 ovarian) was > 100 µM and the TGI (HCT-116 colon) was > 100 µM. The TGI (MDA-MB-435) was > 100 µM, the TGI (SK-MEL-28 melanoma) was > 100 µM and the TGI (UACC-257 melanoma) was > 75.9 µM. The TGI (786-0 renal) was > 100 µM, the TGI (SNB-19 CNS) was > 100 µM and the TGI (SF-268 CNS) was > 100 µM. For the same compound, the TGI (SK-OV-3 ovarian) was 97.5 µM, the TGI (MOLT-4 leukemia) was > 91.6 µM and the TGI (EKVX NSCLC) was > 100 µM. The TGI (RPMI-8226 leukemia) was > 93.9 µM, the TGI (COLO 205 colon) was > 51.6 µM and the TGI (K-562 leukemia) was > 100 µM. For the same compound, the TGI (DU-145 prostate) was > 100 µM, the TGI (NCI/ADR-RES ovarian) was > 100 µM and the TGI (MDA-MB-231 breast) was > 100 µM. The TGI (SR leukemia) was > 100 µM, the TGI (MDA-N) was > 100 µM and the TGI (UO-31 renal) was > 100 µM. The TGI (LOX IMVI melanoma) was > 100 µM, the TGI (HS 578T breast) was > 81.9 µM and the TGI (NCI-H460 lung) was > 100 µM. The TGI (OVCAR-5 ovarian) was > 100 µM, the TGI (MALME-3M melanoma) was 83.4 µM and the TGI (M14 melanoma) was > 100 µM. For the same compound, the TGI (A549 NSCLC) was > 100 µM, the TGI (SK-MEL-5 melanoma) was 12.5 µM and the TGI (NCI-H522 lung) was 37.4 µM. The TGI (NCI-H226 lung) was > 83 µM, the TGI (SW-620 colon) was > 100 µM and the TGI (RXF 393 renal) was > 100 µM. The TGI (T-47D breast) was > 78.1 µM and the TGI (ACHN renal) was > 100 µM.
